The values that follow come from patent publication US20250197372A1 (priority 2020, published 2025).

Like-named read-outs stand apart in the source and are kept apart here. Bounds are passed on as bounds.

This assay has as its target T1, recombinant alpha-glucosidase I (human full-length glucosidase I, Glu 1) (Homo sapiens, UniProt Q13724).
T1 construct: 6-His (C); made in house; host or cells: HEK-293T cells transduced with BacMam virus (virus raised in Sf9)
T1 sequence (Q13724 1-837): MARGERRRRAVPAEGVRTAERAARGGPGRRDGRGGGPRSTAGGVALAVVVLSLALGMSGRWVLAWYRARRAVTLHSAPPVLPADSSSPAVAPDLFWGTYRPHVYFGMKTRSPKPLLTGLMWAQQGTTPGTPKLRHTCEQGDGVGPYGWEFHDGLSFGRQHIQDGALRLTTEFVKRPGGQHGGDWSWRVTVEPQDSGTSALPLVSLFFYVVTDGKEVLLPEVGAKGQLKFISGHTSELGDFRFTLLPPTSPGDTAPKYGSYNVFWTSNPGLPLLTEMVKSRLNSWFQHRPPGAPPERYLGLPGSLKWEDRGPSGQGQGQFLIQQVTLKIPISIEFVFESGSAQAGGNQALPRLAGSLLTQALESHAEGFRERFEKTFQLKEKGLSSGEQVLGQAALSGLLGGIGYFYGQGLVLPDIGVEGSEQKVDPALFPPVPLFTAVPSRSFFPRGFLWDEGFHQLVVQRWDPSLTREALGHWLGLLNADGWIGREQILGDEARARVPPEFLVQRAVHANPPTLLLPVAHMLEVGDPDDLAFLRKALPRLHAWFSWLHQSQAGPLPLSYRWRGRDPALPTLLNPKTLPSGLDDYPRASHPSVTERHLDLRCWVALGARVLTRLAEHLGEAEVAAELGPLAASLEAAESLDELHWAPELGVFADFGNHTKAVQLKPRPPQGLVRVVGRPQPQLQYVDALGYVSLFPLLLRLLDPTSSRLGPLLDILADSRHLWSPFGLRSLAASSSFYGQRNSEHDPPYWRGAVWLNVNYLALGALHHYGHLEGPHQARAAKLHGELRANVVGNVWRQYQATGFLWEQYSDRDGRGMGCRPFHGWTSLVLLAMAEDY
Description: Alpha-glucosidase I assay (Amplex Red glucose detection, synthetic trisaccharide substrate). The class given is biochemical. From the text: Preparation of Human Full-length Glucosidase I: The amino acid sequence for human full-length glucosidase I was obtained from UniProt (Q13724). […] The entry vector was cloned into Kemp Proteins' BacMam Destination vector and transformed into chemically competent DH10Bac E. coli cells to produce recombinant glucosidase I bacmids. Bacmid isolates were obtained following two rounds of blue-white screening and they were transfected into Sf9 cells cultivated in serum-free medium (Thermo Fisher Scientific). Four days post-transfection the culture supernatants containing virus were harvested and filter sterilized. […] A multiplicity of infection (MOI, ratio of virus to cells) of 4 was selected. Soluble glucosidase I was detected by anti-His western blots in the soluble cell extract following extraction with 1% V/V NP40 for 30 minutes at 0° C. Productions and purifications of glucosidase I were carried out at scales ranging from 1-liter to 10-liters. […] In another example production at the 10-liter scale was performed in stirred-tank bioreactors at 27° C. and 80 rpm with dissolved oxygen level at 50% of oxygen in air and pH between 7.0 and 7.2. Cells were transduced at MOI of 4 and the cell pellet was harvested at 48 hours post-transduction using centrifugation.
The pellet from a 10-liter culture was lysed by resuspending the pellet into 1-liter of 50 mM NaH2PO4—H2O+300 mM NaCl+10 mM Imidazole+1 mM PMSF+1% V/V NP40 pH 8. The suspension was incubated on ice for 30 minutes and clarified at 500×g and 4° C. The supernatant was collected and clarified at 20,000×g for 30 minutes at 4° C. and the supernatant was collected and filtered through a 0.2 micron filter. […] The column was washed with 20 column volumes (CV) of 50 mM NaH2PO4-H2O+300 mM NaCl+10 mM Imidazole pH 8 and eluted using a linear gradient of 0-60% 50 mM NaH2PO4-H2O+300 mM NaCl+500 mM Imidazole pH 8 over 90 minutes. at 5 mL per minute. Fractions (25 mL) were collected and analyzed by SDS PAGE and Western Blot (reducing anti-His). Fractions containing purified glucosidase I were pooled and dialyzed into storage buffer (20 mM Tris+300 mM NaCl+50 mM L-arginine+10 mM EDTA+0.01% V/V Tween 80 pH 7.5). The final material was filter sterilized and stored at 4° C. and the working dilution confirmed by a use-test in the indicated assay conditions prior to use.
Alpha-glucosidase I Assay: The assay was performed by incubating recombinant alpha-glucosidase I enzyme with multiple dilutions of test compounds for 60 minutes at 37° C. A synthetic trisaccharide substrate analog was then introduced to the mixture for 90 minutes at 37° C. The reaction was then stopped with 1.5M Tris (pH 8). In the absence of inhibition, the terminal glucose of the substrate was hydrolyzed by the enzyme. The D-glucose product was detected using Amplex Red Glucose/Glucose Oxidase Assay Kit (Invitrogen) following the manufacturer's directions where glucose oxidase reacts with D-glucose to form D-gluconolactone and H2O2 which then reacts with the Amplex Red reagent to generate a red-fluorescent oxidation product (560 nm, excitation; 590 nm, emission). […] Percent inhibition is plotted as a function of concentration for each compound, compared to control reactions. The IC50 was determined using a 4-PL curve fit and serves as a measure of relative inhibitory activity of each test compound (see Table 3).

The mark [1] stands for this setting: Glucosidase 1, read-out: Glu 1 IC50.

As usually defined, the IC50 is the midpoint of a concentration-inhibition curve. For `O=[N+]([O-])c1cc(N2C3CCC2COC3)ccc1NCc1ccc(CN2CC(O)C(O)C(O)C2CO)cc1` (stereo in doubt) [Compound 1018, (2S,3S,4S,5R)-2-(hydroxymethyl)-1-({4-[({2-nitro-4-[(1R,5S)-3-oxa-8-azabicyclo[3.2.1]octan-8-yl]phenyl}amino)methyl]phenyl}methyl) piperidine-3,4,5-triol], the IC50 is under 1 nM.

As to `[N-]=[N+]=Nc1ccc(NCCc2ccc(CCN3C[C@@H](O)[C@H](O)[C@@H](O)[C@@H]3CO)c3ccccc23)c([N+](=O)[O-])c1` (stereo in doubt) [Compound 1178, (2S,3S,4S,5R)-1-[2-(4-{2-[(4-azido-2-nitrophenyl)amino]ethyl}naphthalen-1-yl)ethyl]-2-(hydroxymethyl)piperidine-3,4,5-triol], the IC50 under setting [1] stood at 2730 nM.

On to `OC[C@@H]1[C@@H](O)[C@H](O)[C@@H](O)CN1CCCCCCNc1cc(-c2cccnn2)cc(C2CC2)c1` [Compound 1008, (2R,3R,4R,5S)-1-(6-{[3-cyclopropyl-5-(pyridazin-3-yl)phenyl]amino}hexyl)-2-(hydroxymethyl)piperidine-3,4,5-triol], for which the IC50 amounted to 103 nM.

Take `OC[C@@H]1[C@@H](O)[C@H](O)[C@@H](O)CN1CCCCCCNc1cc(-c2ncccn2)cc(C2CC2)c1` [Compound 1009, (2R,3R,4R,5S)-1-(6-{[3-cyclopropyl-5-(pyrimidin-2-yl)phenyl]amino}hexyl)-2-(hydroxymethyl)piperidine-3,4,5-triol]: under setting [1], the IC50 turned out to be 163 nM.

On to `OC[C@@H]1[C@@H](O)[C@H](O)[C@@H](O)CN1Cc1ccc(CNc2cc(C3CC3)cc(N3CCOCC3)c2)cc1` [Compound 1010, (2R,3R,4R,5S)-1-{[4-({[3-cyclopropyl-5-(morpholin-4-yl)phenyl]amino}methyl)phenyl]methyl}-2-(hydroxymethyl)piperidine-3,4,5-triol], for which the IC50 under setting [1] is 199 nM.

As for `OC[C@@H]1[C@@H](O)[C@H](O)[C@@H](O)CN1Cc1ccc(CNc2cc(-c3cccnn3)cc(C3CC3)c2)cc1` [Compound 1012, (2R,3R,4R,5S)-1-{[4-({[3-cyclopropyl-5-(pyridazin-3-yl)phenyl]amino}methyl)phenyl]methyl}-2-(hydroxymethyl)piperidine-3,4,5-triol], the IC50 under setting [1] was determined as 18 nM.

For `OC[C@@H]1[C@@H](O)[C@H](O)[C@@H](O)CN1Cc1ccc(CNc2cc(-c3ncccn3)cc(C3CC3)c2)cc1` [Compound 1013, (2R,3R,4R,5S)-1-{[4-({[3-cyclopropyl-5-(pyrimidin-2-yl)phenyl]amino}methyl)phenyl]methyl}-2-(hydroxymethyl)piperidine-3,4,5-triol], the IC50 under setting [1] is 53 nM.

`C[C@@H]1CN(c2ccc(NCc3ccc(CN4C[C@H](O)[C@@H](O)[C@H](O)[C@H]4CO)cc3)c([N+](=O)[O-])c2)C[C@H](C)O1` [Compound 1014]: the IC50 came to 1 nM.

Turning to `CS(=O)(=O)c1cc(Br)cc(NCc2cccc(CN3C[C@H](O)[C@@H](O)[C@H](O)[C@H]3CO)c2)c1` [Compound 1022, (2R,3R,4R,5S)-1-[(3-{[(3-bromo-5-methanesulfonylphenyl)amino]methyl}phenyl)methyl]-2-(hydroxymethyl)piperidine-3,4,5-triol], the IC50 was found to be 19 nM.

For the molecule `Cc1cc(NCc2cccc(CN3C[C@H](O)[C@@H](O)[C@H](O)[C@H]3CO)c2)cc(-c2ncccn2)c1` [Compound 1035, (2R,3R,4R,5S)-2-(hydroxymethyl)-1-{[3-({[3-methyl-5-(pyrimidin-2-yl)phenyl]amino}methyl)phenyl]methyl}piperidine-3,4,5-triol], the IC50 was 44 nM.

Regarding `CS(=O)(=O)c1cc(NCc2cccc(CN3C[C@H](O)[C@@H](O)[C@H](O)[C@H]3CO)c2)cc(-c2cccnn2)c1` [Compound 1040, (2R,3R,4R,5S)-2-(hydroxymethyl)-1-{[3-({[3-methanesulfonyl-5-(pyridazin-3-yl)phenyl]amino}methyl)phenyl]methyl}piperidine-3,4,5-triol], the IC50 came to 17 nM.

Consider `CS(=O)(=O)c1cc(NCc2cccc(CN3C[C@H](O)[C@@H](O)[C@H](O)[C@H]3CO)c2)cc(-c2ncccn2)c1` [Compound 1041, (2R,3R,4R,5S)-2-(hydroxymethyl)-1-{[3-({[3-methanesulfonyl-5-(pyrimidin-2-yl)phenyl]amino}methyl)phenyl]methyl}piperidine-3,4,5-triol], for which the IC50 was 17 nM.

Turning to `N#Cc1cc(NCc2cccc(CN3C[C@H](O)[C@@H](O)[C@H](O)[C@H]3CO)c2)cc(C2=COCCO2)c1` [Compound 1044, 3-(5,6-dihydro-1,4-dioxin-2-yl)-5-{[(3-{[(2R,3R,4R,5S)-3,4,5-trihydroxy-2-(hydroxymethyl)piperidin-1-yl]methyl}phenyl)methyl]amino}benzonitrile], the IC50 worked out at 3 nM.

For the molecule `Cc1cc(NCc2ccc(CN3C[C@H](O)[C@@H](O)[C@H](O)[C@H]3CO)cc2)cc(-c2cccnn2)c1` [Compound 1052, (2R,3R,4R,5S)-2-(hydroxymethyl)-1-{[4-({[3-methyl-5-(pyridazin-3-yl)phenyl]amino}methyl)phenyl]methyl}piperidine-3,4,5-trio], the IC50 stood at 73 nM.

For `CS(=O)(=O)c1cc(NCc2ccc(CN3C[C@H](O)[C@@H](O)[C@H](O)[C@H]3CO)cc2)cc(-c2cccnn2)c1` [Compound 1058, (2R,3R,4R,5S)-2-(hydroxymethyl)-1-{[4-({[3-methanesulfonyl-5-(pyridazin-3-yl)phenyl]amino}methyl)phenyl]methyl}piperidine-3,4,5-triol], the IC50 came to 21 nM.

`O=[N+]([O-])c1cc(N2CCOCC2)ccc1NCc1cccc(CN2C[C@H](O)[C@@H](O)[C@H](O)[C@H]2CO)c1` [Compound 1067, (2R,3R,4R,5S)-2-(hydroxymethyl)-1-{[3-({[4-(morpholin-4-yl)-2-nitrophenyl]amino}methyl)phenyl]methyl}piperidine-3,4,5-triol]: the IC50 is 99 nM.

As for `OC[C@@H]1[C@@H](O)[C@H](O)[C@@H](O)CN1Cc1ccc(CNc2ccc(N3CCOCC3)cc2)cc1` [Compound 1068], the IC50 amounted to 122 nM.

In the case of `OC[C@@H]1[C@@H](O)[C@H](O)[C@@H](O)CN1CCc1ccc(CCNc2cc(Cl)cc(-c3ncon3)c2)cc1` [Compound 1113, (2R,3R,4R,5S)-1-{2-[4-(2-{[3-chloro-5-(1,2,4-oxadiazol-3-yl)phenyl]amino}ethyl)phenyl]ethyl}-2-(hydroxymethyl)piperidine-3,4,5-triol], the IC50 is 1010 nM.
